Measured values published in publication PMC12977544, “Phenotypic high-throughput screening identifies modulators of gut microbial choline metabolism” (mBio, 2026).

Legend:
E. coli MS 200-1 [1] = assay: TMA inhibition in bacterial whole cells (LC–MS/MS of d9-TMA from d9-choline); format: cell-based, Escherichia coli MS 200-1; conditions: 1 mM d9-choline in PBS, 75 min, 37°C, anaerobic
Experimental: (§1) For TMA inhibition assays, E. coli and P. mirabilis were grown in NCE medium supplemented with 20 mM choline chloride, A. hydrogenalis was grown in MEGA medium supplemented with 3 mM choline chloride, and C. sporogenes was grown in BHI medium supplemented with 20 mM of choline chloride to induce expression of the cut gene cluster. For MIC assays, all bacteria strains were grown in MEGA medium.
(§2) Compounds were stored as 10 mM DMSO stocks at –20°C and diluted in DMSO to prepare varying concentrations of inhibitors for testing. Bacteria were grown anaerobically overnight in media supplemented with choline as described above. Cells were pelleted and resuspended in PBS, and d9-choline chloride was added to a final concentration of 1 mM. The final OD600 of the PBS cell resuspensions is as follows: 0.4 (E. coli), 0.15–0.2 (P. mirabilis), 0.2 (C. sporogenes), and 0.4 (A. hydrogenalis). The resuspended cells were added to 96-well plates containing inhibitors (final concentration of 1% DMSO, with final inhibitor concentrations ranging between 0 and 325 µM). The plates were sealed and incubated for 75 min (or 90 min for P. mirabilis) at 37°C. Following incubation, the plates were removed from the anaerobic chamber and analyzed immediately or kept at –20°C until LC–MS/MS analysis. Each inhibitor concentration was tested in triplicate. EC50 values were calculated with GraphPad Prism by fitting the log(inhibitor) vs response—Variable slope (four-parameter) model for non-linear regression.
(§3) Samples were kept frozen until analysis and kept cold on ice during handling due to the volatility of TMA. Bacterial cell resuspensions in PBS were diluted 100-fold in LCMS-grade acetonitrile with 0.1% formic acid to lyse cells, precipitate proteins, and extract metabolites. Samples were centrifuged at 4,000 rpm for 10 min at 4°C to pellet proteins. The supernatants were then further diluted 20-fold in LCMS-grade acetonitrile with 0.1% formic acid, and the resulting solution was analyzed by LC–MS/MS.
(§4) LC–MS/MS analysis was performed on an Agilent 1290/6470 Triple Quadrupole LC–MS instrument (Agilent Technologies) using electrospray ionization. The mass spectrometer was operated in multiple reaction monitoring (MRM) mode with positive ionization monitoring. The precursor–product ion pairs used in MRM mode were as follows: m/z 69.1m/z → 49.1 (d9-TMA) and m/z 113.2 m/z → 69.1 (d9-choline). The capillary voltage was set to 4.0 kV, and the fragmentor voltage was set to 30 V (d9-TMA) and 115 V (d9-choline). The collision energy for the precursor–product ion pairs was set to 29 V (d9-TMA) and 21 V (d9-choline). MS^1 resolution was set to wide and MS^2 resolution to unit. The drying gas temperature was maintained at 250°C, with a flow rate of 11 L/min and a nebulizer pressure of 45 psi. The time filter width used was 0.07 min. The injection volume of all samples was 1 μL. Samples were injected onto InfinityLab Poroshell 120 (Agilent) HILIC columns (2.7 μm, 100 mm × 2.1 mm, 100 Å) preceded by InfinityLab Poroshell 120 HILIC guard columns (2.1 mm, 1.9µm UHPLC guard). The LC conditions on the binary pump were as follows: a gradient of 5–35% A increasing over 1.95 min (1.2 mL/min), a gradient of 35–5% A decreasing over 0.05 min (1.6 mL/min), and held at 5% A for 0.5 min (2 mL/min). […] Solvent A was 10 mM ammonium formate with 0.1% formic acid, and solvent B was acetonitrile with 0.1% formic acid. Data analysis was performed with Mass Hunter Workstation Data Acquisition and Qualitative Analysis software (Agilent Technologies).

[2] = target: T1, purified CutC (choline trimethylamine-lyase) (Oleidesulfovibrio alaskensis, UniProt Q30W70); assay: In vitro CutC activity assay coupled to YADH/NADH (absorbance 340 nm); format: biochemical, Desulfovibrio desulfuricans G20; conditions: 5 nM CutC, 200 µM choline, 20°C, anaerobic
T1 construct: made in house
Experimental: To investigate if our compounds were inhibiting CutC directly, we tested their activity toward the purified enzyme. The activity of CutC was determined using a coupled enzyme assay, where the acetaldehyde product from the cleavage of choline to TMA is reduced to ethanol by yeast alcohol dehydrogenase (YADH) using nicotinamide adenine dinucleotide (NADH) as a cofactor. The consumption of NADH results in a change in absorption at 340 nm, and this rate of change of absorption was used to calculate the initial rates of reaction of CutC in the presence of varying concentrations of inhibitors ([14], [65]).
CutC and CutD enzymes from Desulfovibrio desulfuricans G20 were purified, CutC was activated by incubation with CutD, and the amount of glycyl radical installation was quantified as previously described ([15]). The IC50 of compounds was determined in an in vitro CutC activity assay, where CutC activity is coupled to the NADH-dependent enzymatic reduction of acetaldehyde by YADH ([15]). Briefly, assays were conducted in an anaerobic chamber (MBraun) under N2 atmosphere at 20°C. In 50 mM potassium phosphate buffer (pH 8.0, 50 mM KCl), 40 µM of CutD and 150 µM of sodium dithionite were incubated for 20 min before the addition of 200 µM of SAM and 20 µM of CutC monomer. The mixture was incubated for 1 h to activate the glycyl radical enzyme, after which the activated CutC mixture was diluted […] in 50 mM potassium phosphate buffer (pH 8.0, 50 mM KCl). A master mix containing 200 µM NADH, 0.4 µM YADH (Sigma), and the diluted CutC mixture (5 nM final concentration in assay) was prepared and aliquoted into 96-well plates (180 µL per well). Ten microliters of inhibitor or DMSO vehicle was added, followed by 10 µL of aqueous choline chloride solution (final concentration 200 µM). Absorbance was measured at 340 nm immediately after addition of all assay components, with measurements taken every 20 s for 10 min. Initial rates were calculated from absorbance measurements and fitted to Michaelis–Menten equation using nonlinear regression in GraphPad Prism 10 (v. 10.4.0). Background activity was subtracted using no substrate controls, and initial rates for each inhibitor concentration were normalized to no inhibitor controls. IC50 values were obtained by plotting normalized activity values against the logarithm of inhibitor concentration and fitting to a nonlinear regression model in GraphPad Prism 10 (v. 10.4.0).

[3] = test system: Proteus mirabilis ATCC 29906; assay: TMA inhibition in bacterial whole cells (LC–MS/MS of d9-TMA from d9-choline); format: cell-based; conditions: 1 mM d9-choline in PBS, 90 min, 37°C, anaerobic; read-out: EC50 in whole cells, P. mirabilis (TMA inhibition)
Experimental: as §1, §2, §3, §4

[4] = test system: Anaerococcus hydrogenalis DSM 7454; assay: as above; format: cell-based; conditions: 1 mM d9-choline in PBS, 75 min, 37°C, anaerobic
Experimental: as §1, §2, §3, §4

[5] = test system: Clostridium sporogenes ATCC 15579; assay: as above; format: cell-based; conditions: 1 mM d9-choline in PBS, 75 min, 37°C, anaerobic
Experimental: as §1, §2, §3, §4

E. coli MS 200-1 [6] = assay: MIC in MEGA medium; format: cell-based, Escherichia coli MS 200-1; conditions: Escherichia coli, MS2001; anaerobic, 37°C, 24 h, up to 200 µM
Experimental: as §1

[7] = test system: Proteus mirabilis ATCC 29906; assay: MIC in MEGA medium; format: cell-based; conditions: Proteus mirabilis, ATCC29906; anaerobic, 37°C, 24 h, up to 200 µM; read-out: MIC in MEGA medium, P. mirabilis
Experimental: as §1

[8] = test system: Bacteroides ovatus ATCC 8483; assay: MIC in MEGA medium; format: cell-based; conditions: Bacteroides ovatus, ATCC8483; anaerobic, 37°C, 24 h, up to 200 µM; read-out: MIC in MEGA medium, B. ovatus
Experimental: as §1

[9] = test system: Bacteroides caccae ATCC 43185; assay: MIC in MEGA medium; format: cell-based; conditions: Bacteroides caccae, ATCC43185; anaerobic, 37°C, 24 h, up to 200 µM; read-out: MIC in MEGA medium, B. caccae
Experimental: as §1

[10] = test system: Anaerococcus hydrogenalis DSM 7454; assay: MIC in MEGA medium; format: cell-based; conditions: Anaerococcus hydrogenalis, DSM7454; anaerobic, 37°C, 24 h, up to 200 µM
Experimental: as §1

[11] = test system: Collinsella aerofaciens ATCC 25986; assay: MIC in MEGA medium; format: cell-based; conditions: Collinsella aerofaciens, ATCC25986; anaerobic, 37°C, 24 h, up to 200 µM
Experimental: as §1

[12] = test system: Bacteroides thetaiotaomicron VPI-5482; assay: MIC in MEGA medium; format: cell-based; conditions: Bacteroides thetaiotaomicron, VPI5482; anaerobic, 37°C, 24 h, up to 200 µM; read-out: MIC in MEGA medium, B. thetaiotaomicron
Experimental: as §1

[13] = test system: Clostridium sporogenes ATCC 15579; assay: MIC in MEGA medium; format: cell-based; conditions: Clostridium sporogenes, ATCC15579; anaerobic, 37°C, 24 h, up to 200 µM
Experimental: as §1

T1 sequence (Q30W70 53-846): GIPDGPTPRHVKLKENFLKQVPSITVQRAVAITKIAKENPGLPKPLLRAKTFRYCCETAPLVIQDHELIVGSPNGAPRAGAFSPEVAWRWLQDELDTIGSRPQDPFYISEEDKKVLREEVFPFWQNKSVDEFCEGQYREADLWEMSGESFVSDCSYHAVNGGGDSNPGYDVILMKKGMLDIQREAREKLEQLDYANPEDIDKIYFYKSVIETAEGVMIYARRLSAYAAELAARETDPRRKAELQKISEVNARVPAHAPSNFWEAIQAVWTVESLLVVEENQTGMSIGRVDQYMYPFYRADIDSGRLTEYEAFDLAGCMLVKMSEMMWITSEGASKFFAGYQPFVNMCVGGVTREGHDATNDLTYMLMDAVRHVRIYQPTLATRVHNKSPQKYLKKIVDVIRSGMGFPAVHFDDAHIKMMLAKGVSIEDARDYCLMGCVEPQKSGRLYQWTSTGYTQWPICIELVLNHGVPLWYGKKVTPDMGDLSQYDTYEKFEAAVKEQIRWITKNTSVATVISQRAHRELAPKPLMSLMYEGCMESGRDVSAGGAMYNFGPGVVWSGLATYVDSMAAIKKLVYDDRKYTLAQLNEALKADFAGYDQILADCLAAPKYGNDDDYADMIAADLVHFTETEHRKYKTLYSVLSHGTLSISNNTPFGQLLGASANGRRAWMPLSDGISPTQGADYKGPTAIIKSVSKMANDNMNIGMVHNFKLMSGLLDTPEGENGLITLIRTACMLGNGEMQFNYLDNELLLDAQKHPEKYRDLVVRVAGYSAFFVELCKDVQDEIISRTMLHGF

SMILES | EC50 (E. coli MS 200-1 [1]) | IC50 [2] | EC50 [3] | EC50 [4] | EC50 [5] | Purified CutC IC50 [2] | also measured
Cc1cc(-c2cc(C(=O)NCCCN3CCC(C)CC3)c(C)[nH]2)ccn1 [Compound 26] | > 125 µM | 45 µM | > 312 µM | – | – | – | EC50 in whole cells, A. hydrogenalis (TMA inhibition) [4]: No inhibition at 312; EC50 in whole cells, C. sporogenes (TMA inhibition) [5]: No inhibition at 312
Cc1ccc(-c2cc(C(=O)N(C)CCCN3CCC(C)CC3)c(C)[nH]2)cc1C [Compound 27] | > 125 µM | 18 µM | > 312 µM | 44 µM | 12 µM | – | –
Cc1ccc(-c2cc(C(=O)OCCCN3CCC(C)CC3)c(C)[nH]2)cc1C [Compound 28] | 15 µM | – | > 312 µM | 11 µM | 18 µM | No inhibition | –
Cc1ccc(-c2cc(C(=O)NCCCN3CCOCC3)c(C)[nH]2)cc1C [Compound 37] | – | – | – | – | – | No inhibition | –
Cc1ccc(-c2cc(C(=O)NCCCCN3CCCCCC3)c(C)[nH]2)cc1C [Compound 44] | – | – | – | – | – | – | MIC (E. coli MS 200-1 [6]): > 200 µM; MIC [7]: > 200 µM; MIC [8]: > 200 µM; MIC [9]: > 200 µM; MIC [10]: > 200 µM; MIC [11]: > 200 µM; MIC [12]: > 200 µM; MIC [13]: > 200 µM
